{"source": "patent US11364390B2", "about": "“Apparatus for treating pathological cells” (priority 2017, dated 2022)", "key": {"Nephroblastoma G401": {"tested_on": "Nephroblastoma G401", "assay": "Tumor growth inhibition in vivo, G401 nephroblastoma model in nude mice", "details": "cisplatin 20 mg/kg three times a week, irradiation about 90 minutes a day, P<0.05, FIG. 9", "excerpt": "Example 7: G401 nephroblastoma model was established in nude mice and the animals were randomly divided into 4 groups with 8 mice in each group. […] Tumor models were established: Male nude mice were infants aged 3-4 weeks old. Nephroblastoma G401 was inoculated into the axilla and the number was 5×10^6/volume. The volume was 200 microliters. After one week of inoculation, the tumor could be touched. The animals were randomized groups, control group, irradiation group, cisplatin group, combined groups, treated separately. […] The control animals were placed in the animals irradiated with electromagnetic field-free coils for 90 minutes every day, and injected intraperitoneally with the same volume of physiology Saline; all animals were sacrificed 3 days after the neck, the eyeball to take whole blood, EDTA anticoagulant, after centrifugation to take the biochemical indicators of blood plasma, remove underarm growth tumor, weighed tumor weight, tissue cryopreservation. Statistical analysis: Each group of 8 animals, the results were mean±standard deviation, the results of T test, P<0.05 as a significant difference in indicators."}, "[1]": {"tested_on": "neuroblastoma cells CHLA255", "assay": "Cell viability assay (live cell count) on cultured neuroblastoma cells CHLA255", "type": "cell-based", "details": "cisplatin 500 nM once a day, combination with electromagnetic field 2 hours a day, FIG. 6", "method": "Cell Lines and Methods of Culture: Neuroblastoma cells, CHLA255, which are adherent cells, are grown in 37° C. incubator with 10% fetal calf serum in McCoy's medium containing 5% carbon dioxide and saturated water vapor. Cell viability assay: Neuroblastoma cells, CHLA255, were seeded in 6-well plates at a density of 1×10^5 cells/well. […] Statistical Analysis: Each irradiation conditions repeated three times, each three holes, the results were mean±standard error, the results do T test, with P<0.05 as a significant difference in indicators."}, "[2]": {"tested_on": "nephroblastoma cells G401", "assay": "Cell viability assay (live cell count) on cultured nephroblastoma cells G401", "type": "cell-based", "details": "cisplatin 500 nM once a day, combination with electromagnetic field 2 hours a day, FIG. 5", "method": "Cell Lines and Methods of Culture: Nephroblastoma cells G401, adherent cells, were cultured in McCoy's medium with 10% fetal bovine serum at 37° C. in an incubator containing 5% carbon dioxide and saturated water vapor. Cell viability assay: […] cells were seeded into 6-well plates at a density of 1×10^5 cells/well. […] Statistical Analysis: Each irradiation conditions repeated three times, each three holes, the results were mean±standard error, the results do T test, with P<0.05 as a significant difference in indicators."}}, "data": [{"smiles": "N.N.[Cl][Pt][Cl]", "note": "[cisplatin]", "values": [{"measurement": "tumor weight compared with the control group", "setting": "Nephroblastoma G401", "result": "no significant difference"}, {"measurement": "cell inhibition rate", "setting": "[1]", "result": "increase"}, {"measurement": "cell proliferation (number of cells)", "setting": "[1]", "result": "slow proliferation"}, {"measurement": "cell inhibition rate", "setting": "[2]", "result": "increase"}, {"measurement": "cell proliferation (number of cells)", "setting": "[2]", "result": "slow proliferation"}]}]}
